Reference: patent US20230390250A1, “MODULATION OF GLUCAGON-LIKE PEPTIDE 1 AND USES THEREOF” (priority 2020, published 2023)
Entries after “also recorded” stand apart in the source; their conditions may differ. Where two headings read alike, the source gives them in different places.

Assays:
GLUTag cells = assay: GLP-1 secretion from cultured GLUTag cells treated with LPA and/or LPAR antagonist; assay type: cell-based, mouse; conditions: for decrease in GLP-1 secretion / level caused by LPA (fraction): 2-2.5 h; for effect of LPAR antagonist alone on GLP-1 levels: 10 μM antagonist alone, 2 h; for rescue of LPA-inhibited GLP-1 secretion by LPAR antagonist: 10 μM antagonist plus 2.5 μM LPA
Description: We have grown GLUTag cells in culture to test effects of various LPA species and the LPAR 1/2/3 inhibitor Ki-16425. GLUTag cells are a well characterized L-cell line derived from a mouse intestinal tumour, which have been widely used to study the regulation of GLP-1. Briefly, GLUTag cells were grown until 80-90% confluent. Complete medium, containing fetal bovine serum, was replaced with medium containing charcoal[…] dextran treated serum, which removes lipids and hormones that could interfere with testing. […] This indicates a direct inhibitory effect of LPA at physiologically relevant levels on GLP-1 secretion by L-cells, and the ability of a commercially available LPAR antagonist to prevent this.
Experimental Protocol. Briefly, GLUTag cells were grown until 70-80% confluent. Complete medium (low glucose DMEM), containing fetal bovine serum, was replaced with medium containing charcoal-dextran treated serum, which removes lipids and hormones that could interfere with testing. Cells were then treated with medium containing either DMSO as vehicle control (0.1% v/v), 2.5 μM LPA, 10 μM LPAR antagonist, or a combination of the LPA species and inhibitors. For cells treated with both LPA plus LPAR inhibitor: cells were pre-treated with LPA for 30 minutes and then 10 uM LPAR inhibitor was added to the respective wells for a further 2 hours. For cells treated with LPA only, or vehicle only, the total treatment time was 2.5 hours. For cells treated with antagonist only, the treatment time was 2 hours.

DPP4 [1] = assay: DPP4 activity in GLUTag cells (fluorometric kit ab204722); assay type: cell-based, mouse
Description: Briefly, GLUTag cells were grown to produce the recommended quantity needed for the assay according to the manufacturer's protocol (ab204722 Dipeptidyl peptidase IV Activity Assay Kit (Fluorometric)), and then the wells were treated in media containing charcoal-stripped FBS (10%), with either nothing (no treatment control), or vehicle control (0.05% DMSO), or 2.5 uM 18:1-LPA for 30 minutes, and then the inhibitors (as indicated in the graph of FIG. 17) were added to the vehicle wells and the 2.5 uM 18:1-LPA wells at 10 uM concentrations, as indicated on the graph (FIG. 17), for an additional 2 hours. Cells were then harvested according to the manufacturer's protocol, and lysed using reagents from the kit. Charcoal-stripped FBS was used to remove lipids, including LPA, from serum. Experiments were also carried out wherein the FBS was not stripped with charcoal, and the results were not different.
According to the manufacturer, dipeptidyl peptidase IV (DPP4) Activity Assay Kit (Fluorometric) (ab204722) is an assay where DPP4 cleaves a substrate to release a quenched fluorescent group, AMC (7-Amino-4-Methyl Coumarin), which can be easily detected at Ex/Em=360/460 nm. This assay is rapid, simple, sensitive, and reliable, as well as, suitable for high throughput activity screening of DPP4. This kit detects DPP4 activity as low as 3 ρU per well.

GLP-1 = assay: Circulating GLP-1 in mice injected with LPA, with or without LPAR antagonist pre-treatment; assay type: in vivo; conditions: for decrease in plasma GLP-1 levels after LPA injection / effect of LPA on circulating GLP-1 levels (words): 50 mg/kg i.p.; for decrease in plasma GLP-1 levels after LPA injection: 30 minutes later, n=3 (Example 3, FIG. 4); for effect of LPA on circulating GLP-1 levels (words): mice; for rescue of the fall in blood GLP-1 levels caused by LPA: serum at 30 min (Examples 6, 8); for blood GLP-1 with antagonist alone versus vehicles: no LPA
Description: We injected mice i.p. with vehicle (10% DMSO in isotonic saline) or 50 mg/kg of 1-oleoyl-2-hydroxy-LPA. Half of the mice injected with LPA were pre-injected with 5 mg/kg Ki-16425 10 minutes prior to receiving LPA. Thirty minutes later, samples of blood were taken by cardiac puncture, and circulating active GLP-1 levels in plasma were analysed by enzyme linked immunosorbent assay.
(§1) The experimental protocol was as follows: • 1. Mice were administered an LPAR antagonist drug, either by oral gavage (for BMS986020, SARI 00842, AM966, AM095, or H2L51863030), or by i.p. injection (for Ki-16425, and LPA2-antagonistl) at the doses indicated in the table below. • 2. Control mice were administered only the vehicle (a 10% DMSO solution) given via the same route as the comparison drug was administered. • 3. Ten minutes later, mice were injected i.p. either with isotonic saline, or with 50 mg/kg LPA. • 4. Thirty minutes later, mice were euthanized by cervical dyslocation, and blood was collected from the heart for preparation of serum that was stored at −80C until it was analyzed for total GLP-1 concentration by ELISA assay using a GLP-1 enzyme immunoassay kit.

DPP4 [2] = assay: DPP4 activity in serum of C57BI/6J mice; assay type: in vivo; conditions: 50 mg/kg 18:1-LPA i.p., serum 30 minutes later
Description: Mice were injected with 5 mg/kg Ki16425 or control (10% DMSO in isotonic saline), then injected 10 mins later with 50 mg/kg 1-18:1-LPA or saline (vehicle control), then euthanized 30 minutes later for serum collection and analysis.
as §1, with “(for” for “(for BMS986020,”, “00842” for “00842, AM966, AM095,”, “AM966),” for “H2L51863030),”, “Ki-16425)” for “Ki-16425, and LPA2-antagonistl)”, “18:1-LPA.” for “LPA.”

LPAR1 [3] = biological target: T1, LPAR1 (Homo sapiens, UniProt Q92633); conditions: cited from earlier work
Target sequence in this assay (Q92633 whole entry, species assumed): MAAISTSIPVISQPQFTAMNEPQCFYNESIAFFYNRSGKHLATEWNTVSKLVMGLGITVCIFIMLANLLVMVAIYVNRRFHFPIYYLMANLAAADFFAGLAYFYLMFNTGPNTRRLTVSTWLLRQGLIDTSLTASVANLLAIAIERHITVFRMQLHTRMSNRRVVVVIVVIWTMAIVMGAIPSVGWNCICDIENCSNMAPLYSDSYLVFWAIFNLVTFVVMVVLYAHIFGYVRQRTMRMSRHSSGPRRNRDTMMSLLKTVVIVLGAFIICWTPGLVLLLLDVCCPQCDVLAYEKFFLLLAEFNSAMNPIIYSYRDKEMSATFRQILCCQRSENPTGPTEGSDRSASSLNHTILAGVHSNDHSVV

LPAR2 = LPAR2 (Homo sapiens, UniProt Q9HBW0); conditions: cited from earlier work
LPAR3 = biological target: T2, LPAR3 (Homo sapiens, UniProt Q9UBY5); conditions: cited from earlier work
T2 sequence (Q9UBY5 1-353): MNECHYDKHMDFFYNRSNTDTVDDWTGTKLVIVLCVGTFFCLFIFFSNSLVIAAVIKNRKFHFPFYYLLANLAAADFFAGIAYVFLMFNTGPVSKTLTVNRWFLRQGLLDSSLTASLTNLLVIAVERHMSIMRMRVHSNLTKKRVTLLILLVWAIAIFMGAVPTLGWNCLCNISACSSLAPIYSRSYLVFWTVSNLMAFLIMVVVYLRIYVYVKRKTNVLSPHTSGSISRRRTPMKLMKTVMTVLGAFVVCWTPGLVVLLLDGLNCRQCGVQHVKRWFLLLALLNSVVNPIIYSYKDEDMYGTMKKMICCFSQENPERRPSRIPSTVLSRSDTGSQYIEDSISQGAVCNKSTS

LPAR1 [4] = biological target: T1, LPAR1; parameters: expressed in transfected cells; host or cells: CHO cells; conditions: LPA-induced calcium response, CHO cells with LPAR1; cited from earlier work
Target sequence in this assay (Q92633 whole entry): as the sequence (Q92633 whole entry, species assumed) above

DPP4 [5] = assay: DPP4 activity in serum of C57BI/6J mice; assay type: in vivo
insulin secretion = conditions: prior study, Rancoule et al. 2013; cited from earlier work
[6] = antagonist 30 mg/kg by gavage 10 min before 50 mg/kg 18:1-LPA i.p.

Sequence of LPAR2 (Q9HBW0 whole entry, species assumed): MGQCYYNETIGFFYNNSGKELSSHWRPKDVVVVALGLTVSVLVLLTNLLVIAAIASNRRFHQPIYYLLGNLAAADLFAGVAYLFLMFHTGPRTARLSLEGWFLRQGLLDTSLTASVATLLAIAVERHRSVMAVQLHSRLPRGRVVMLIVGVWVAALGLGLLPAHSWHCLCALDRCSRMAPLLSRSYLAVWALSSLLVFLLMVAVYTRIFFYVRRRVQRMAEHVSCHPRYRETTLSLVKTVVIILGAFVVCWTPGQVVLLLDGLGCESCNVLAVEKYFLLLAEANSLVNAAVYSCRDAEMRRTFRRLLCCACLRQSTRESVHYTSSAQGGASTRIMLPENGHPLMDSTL

CCCCCCCCCCCCCCCC(=O)OCC(O)COP(=O)(O)O (stereo not shown) [1-palmitoyl-2-hydroxy-LPA]
decrease in GLP-1 secretion / level caused by LPA (fraction) (GLUTag cells; 2.5 μM LPA): over 2/3

CCCCCCCCCCCCCCCCCC(=O)OCC(O)COP(=O)(O)O (stereo not shown) [1-stearoyl-2-hydroxy-LPA]
decrease in GLP-1 secretion / level caused by LPA (fraction) (GLUTag cells; 2.5 μM LPA): over 2/3

CCCCCCCC/C=C\CCCCCCCC(=O)OC[C@@H](O)COP(=O)(O)O [18:1-LPA, 1-oleoyl-2-hydroxy-LPA]
effect of LPA on DPP4 activity in GLUTag cells (DPP4 [1]; 2.5 uM 18:1-LPA): did not significantly reduce | decrease in plasma GLP-1 levels after LPA injection (GLP-1): ~60% | decrease in plasma GLP-1 levels after LPA injection (GLP-1; listed as 1-18:1-LPA): over 60% | effect of LPA on circulating GLP-1 levels (words) (GLP-1): decreased | effect of LPA on circulating GLP-1 levels (words) (GLP-1; listed as 1-oleoyl-2-hydroxy-LPA): decreases circulating GLP-1 levels | decrease in GLP-1 secretion / level caused by LPA (fraction) (GLUTag cells; 2.5 μM LPA): > 2/3 | decrease in GLP-1 secretion / level caused by LPA (fraction) (GLUTag cells; 2.5 μM LPA, listed as 1-oleoyl-2-hydroxy-LPA): over 2/3 | effect of LPA on DPP4 activity in mouse serum (DPP4 [2]): did not affect

CCCCC/C=C\C/C=C\CCCCCCCC(=O)OCC(O)COP(=O)(O)O (stereo not shown) [18:2-LPA, 1-linoleoyl-2-hydroxy-LPA]
effect of LPA on GLP-1 secretion (GLUTag cells; 2.5 μM LPA): decreases GLP-1 secretion | decrease in GLP-1 secretion / level caused by LPA (fraction) (GLUTag cells; 2.5 μM LPA): > 2/3 | decrease in GLP-1 secretion / level caused by LPA (fraction) (GLUTag cells; 2.5 μM LPA, listed as 1-linoleoyl-2-hydroxy-LPA): over 2/3

Cc1noc(-c2ccc(-c3ccc(C4(C(=O)O)CC4)cc3)cc2)c1NC(=O)O[C@H](C)c1ccccc1 [BMS-986020]
rescue of the fall in blood GLP-1 levels caused by LPA (GLP-1; [6]): did not significantly rescue | blood GLP-1 with antagonist alone versus vehicles (GLP-1; antagonist 30 mg/kg by gavage): indistinguishable from mice treated only with the vehicles | effect of LPAR antagonist alone on GLP-1 levels (GLUTag cells): no significant effect | rescue of LPA-inhibited GLP-1 secretion by LPAR antagonist (GLUTag cells): partially rescued | rescue of LPA-inhibited GLP-1 secretion by LPAR antagonist (GLUTag cells; listed as BMS986020): did significantly restore GLP-1 secretion | Ki (LPAR1 [3]): < 300 nM | IC50 (LPAR1 [3]; read-out: IC50 for LPAR1): < 300 nM

O=C(O)/C=C\C(=O)Nc1ccc(Oc2cccc(Oc3ccc(NC(=O)/C=C\C(=O)O)cc3)c2)cc1 [H2L5186303]
IC50 (LPAR2): 8.9 nM | Ki (LPAR2): 8.9 nM | rescue of the fall in blood GLP-1 levels caused by LPA (GLP-1; [6]): partially rescued; also recorded: partial rescue | blood GLP-1 with antagonist alone versus vehicles (GLP-1; antagonist 30 mg/kg by gavage): slightly, but significantly lower | effect of LPAR antagonist alone on GLP-1 levels (GLUTag cells): no significant effect; also recorded: did not significantly affect | rescue of LPA-inhibited GLP-1 secretion by LPAR antagonist (GLUTag cells): partially rescued | Ki (LPAR3): ~5000 nM | IC50 (LPAR3; read-out: IC50 for LPAR3): 4500 nM | Ki (LPAR1 [3]): 27000 nM | IC50 (LPAR1 [3]; read-out: IC50 for LPAR1): 27400 nM

Cc1csc2c(N[C@@H](C)CN3CCN(S(=O)(=O)c4ccc(Cl)c(Cl)c4)CC3)ncnc12 [LPA2-antagonist 1]
IC50 (LPAR2): 17 nM | rescue of the fall in blood GLP-1 levels caused by LPA (GLP-1; antagonist 5 mg/kg i.p. 10 min before 50 mg/kg 18:1-LPA i.p.): lack of rescue | rescue of the fall in blood GLP-1 levels caused by LPA (GLP-1; antagonist 5 mg/kg i.p. 10 min before 50 mg/kg 18:1-LPA i.p., listed as LPA2-antagonist): did not significantly rescue | blood GLP-1 with antagonist alone versus vehicles (GLP-1; antagonist 5 mg/kg i.p.): slightly, but significantly lower | effect of LPAR antagonist alone on GLP-1 levels (GLUTag cells): no significant effect | effect of LPAR antagonist alone on GLP-1 levels (GLUTag cells; listed as LPA2-antagonist): did not significantly reduce | rescue of LPA-inhibited GLP-1 secretion by LPAR antagonist (GLUTag cells): complete rescue | rescue of LPA-inhibited GLP-1 secretion by LPAR antagonist (GLUTag cells; listed as LPA2-antagonist): significantly increased | IC50 (LPAR3; read-out: IC50 for LPAR3): > 50000 nM | IC50 (LPAR3; read-out: IC50 with LPAR3): > 50000 nM | IC50 (LPAR1 [3]; read-out: IC50 for LPAR1): > 50000 nM | IC50 (LPAR1 [3]; read-out: IC50 with LPAR1): > 50000 nM

COc1ccc(C(=O)NC2(C(=O)O)Cc3ccccc3C2)cc1OCCc1cccc(C)c1 [SAR100842]
concentration up to which no activity with LPAR2 (LPAR2; no activity up to): > 10,000 nM | concentration up to which no reported activity on LPAR2 (LPAR2; no reported activity up to): > 10 µM | effect of 18:1-LPA combined with LPAR antagonist on DPP4 activity in GLUTag cells (DPP4 [1]; 2.5 uM 18:1-LPA 30 minutes, then 10 uM antagonist 2 hours): did not significantly affect | effect of LPAR antagonist alone on DPP4 activity in GLUTag cells (DPP4 [1]; 10 uM antagonist, 2 hours): did not significantly affect | rescue of the fall in blood GLP-1 levels caused by LPA (GLP-1; [6]): completely abrogated; also recorded: Complete rescues; also recorded: restored to normal levels | blood GLP-1 with antagonist alone versus vehicles (GLP-1; antagonist 30 mg/kg by gavage): indistinguishable from mice treated only with the vehicles | IC50 (LPAR1 [4]): 59 to 262 nM | effect of antagonist on DPP4 activity in mouse serum (DPP4 [5]; 30 mg/kg by gavage): did not significantly affect; also recorded: lack of effect; also recorded: not significantly affected | effect of 18:1-LPA combined with antagonist on DPP4 activity in mouse serum (DPP4 [5]; antagonist 30 mg/kg by gavage then 50 mg/kg 18:1-LPA): did not affect | concentration up to which no activity with LPAR3 (LPAR3; no activity up to): > 10,000 nM | concentration up to which no reported activity on LPAR3 (LPAR3; no reported activity up to): > 10 µM | IC50 (LPAR1 [3]; in cells, read-out: IC50 in cells for LPAR1): ~100 nM

lysophosphatidic acid [LPA]
insulin secretion in mice injected with LPA (insulin secretion): impaired | effect of LPA on circulating GLP-1 levels (words) (GLP-1): suppressed | fall in serum GLP-1 levels after LPA injection (GLP-1; vehicle (10% DMSO)-treated mice, 50 mg/kg 18:1-LPA i.p., 30 min, serum (Example 6)): > 50% | effect of LPA on DPP4 activity in mouse serum (DPP4 [2]): lack of effect; also recorded: not significantly affected
